Experimental data published in PubChem BioAssay AID1013 (Columbia University Molecular Screening Center, 2008).
Calls of active or inactive are those of the source. The rule behind the calls is not given here.

Columns and labels:
[1] = tested on: TNFa-stimulated cells, VCAM1 expression imaging; assay: blockers of VCAM1 upregulation by TNFa – imaging, TNFa stimulus, retest and dose response, confirmation (AID 1013);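 for cell count: compound on cells 1 h before TNFa then 24 h more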
[2] = as above; conditions: TNFa-stimulated cells, VCAM1 expression imaging; cell count; at 10 µM; stronger effect = lower value

SMILES | IC50 [1] | cell count [2]
Cc1ccc(NC2=C/C(=N\S(=O)(=O)c3cccs3)c3ccccc3C2=O)c(C)c1 | > 10000 nM (inactive) | 104%
Cc1cccc(CS(=O)(=O)c2nnc([C@H](Cc3ccccc3)NC(=O)OC(C)(C)C)o2)c1 | > 10000 nM (inactive) | 99.2%
COc1ccc(CS(=O)(=O)/C(Cl)=C(/Cl)C(=O)Nc2ccc(OC)nc2)cc1 | 2000 nM | 2.22%
Cc1ccc(O)c(NC(=O)C2CC(c3c(F)cccc3Cl)=NO2)c1 (configuration not stated) | > 10000 nM (inactive) | 105%
O=C(OCn1ncc(Br)c(Br)c1=O)c1ccc(F)cc1 | 2860 nM | 2.02%
CCN(CC)c1ccc(-c2nn3c(-c4n[nH]c5c4CCC5)nnc3s2)cc1 | > 10000 nM (inactive) | 57.7%
CN(C)c1ccc(C(=O)c2ccc(N(C)C)c3ccccc23)cc1 | 1720 nM | 27.7%
Cc1ccc(Cl)cc1NC1=C/C(=N\S(=O)(=O)c2cccs2)c2ccccc2C1=O | > 10000 nM (inactive) | 123%
CC1CC(=O)NN=C1c1ccc(NCCO)c([N+](=O)[O-])c1 (configuration not stated) | 51 nM | 71.6%
CN1Cc2cc(C(=O)c3cc(Cl)cc(CSc4ncccn4)c3O)cnc2NC1=O | > 10000 nM (inactive) | 85.8%

The next lines start with results.

IC50 [1] | SMILES | cell count [2]
600 nM | CCOC(=O)c1[nH]c(C)c(C(=O)c2cc(F)ccc2F)c1C | 70.7%
> 10000 nM (inactive) | COc1ccc(OC)c(C2C3=C(COC3=O)Nc3cc4c(cc32)OCO4)c1 (configuration not stated) | 112%
> 10000 nM (inactive) | Cc1cccc(NC(=O)CSc2nc3ccc(NC(=O)CSc4nnnn4-c4ccccc4)cc3s2)c1C | 107%
> 10000 nM (inactive) | CCOC(=O)c1[nH]c(C)c(C(=O)c2ccc(C)cc2)c1C | 85.6%
1010 nM | CCCC1=Nc2cc(C(=O)NCCCOCC)ccc2Sc2ccccc21 | 31.7%
3020 nM | COc1ccc(-n2nnnc2S(=O)(=O)CC(=O)N2CCCCC2)cc1 | 4.64%
